Consider 11 compounds from patent US12011444B2, “N-substituted indole derivatives as PGE2 receptor modulators” (Idorsia Pharmaceuticals Ltd, priority 2015, dated 2024).

In general, IC50 refers to the concentration that inhibits the measured activity by half. Lower therefore signals greater potency.

Assay [1] concerns the target PTGER2 (EP2) (Homo sapiens (Human), UniProt P43116). In words: hEP2 b-arrestin assay (PathHunter HEK 293 PTGER2 b-arrestin cells). Format: cell-based. As to conditions: hEP2 b-arrestin assay (values without asterisk). The gist of the method: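 HEK293 cells expressing ProLink-tagged EP2 and EA-fused β-arrestin 2 (enzyme fragment complementation) were seeded 24 h, pre-incubated with compound 15 min at 37 °C, then stimulated with 5 μM PGE2 (final) for 120 min.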

Assay [2] addresses PTRGER4 (EP4) (Homo sapiens (Human), UniProt P35408). Nature of the assay: hEP4 b-arrestin assay (PathHunter HEK 293 PTGER4 b-arrestin cells). It counts as cell-based. As to conditions: hEP4 b-arrestin assay (values without asterisk). The method in brief: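 Stably transfected HEK293 cells carrying EP4–ProLink and β-arrestin 2–EA (β-gal fragment complementation), pre-incubated with compound 15 min at 37 °C, then stimulated with PGE2 (20 nM final) for 120 min at 37 °C. Chemiluminescence read after 1 h detection reagent at room temperature; activity per concentration expressed as percent of DMSO control.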

Sequence of PTRGER4 (EP4) (P35408 whole entry, looked up, the tested form may be a part): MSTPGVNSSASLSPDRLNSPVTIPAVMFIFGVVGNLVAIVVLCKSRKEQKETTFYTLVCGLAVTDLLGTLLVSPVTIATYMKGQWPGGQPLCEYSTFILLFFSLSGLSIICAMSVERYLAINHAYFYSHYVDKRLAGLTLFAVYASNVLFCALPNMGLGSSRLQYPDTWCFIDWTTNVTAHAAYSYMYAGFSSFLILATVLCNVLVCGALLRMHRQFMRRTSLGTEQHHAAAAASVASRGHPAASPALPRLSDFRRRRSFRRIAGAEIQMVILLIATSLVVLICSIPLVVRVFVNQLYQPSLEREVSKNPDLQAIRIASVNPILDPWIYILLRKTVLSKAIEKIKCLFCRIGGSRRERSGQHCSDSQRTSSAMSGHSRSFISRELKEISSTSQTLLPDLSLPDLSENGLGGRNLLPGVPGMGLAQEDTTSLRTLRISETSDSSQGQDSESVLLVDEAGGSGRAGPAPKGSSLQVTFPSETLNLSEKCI
Sequence of PTGER2 (EP2) (P43116 whole entry, the tested form may be a part): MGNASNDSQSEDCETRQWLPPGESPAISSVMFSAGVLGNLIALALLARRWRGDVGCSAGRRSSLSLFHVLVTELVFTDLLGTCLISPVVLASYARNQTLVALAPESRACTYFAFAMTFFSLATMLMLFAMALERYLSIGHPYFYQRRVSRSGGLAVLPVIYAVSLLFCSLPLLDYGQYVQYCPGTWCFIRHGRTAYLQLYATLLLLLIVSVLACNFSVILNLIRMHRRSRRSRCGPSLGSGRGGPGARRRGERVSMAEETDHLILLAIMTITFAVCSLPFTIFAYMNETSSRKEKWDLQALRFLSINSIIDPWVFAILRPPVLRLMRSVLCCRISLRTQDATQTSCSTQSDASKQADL

With `COC(=O)N(C)c1ccc(-c2cc(NCCn3c(C#N)cc4c(OC)ccc(F)c43)ncn2)cc1` [Example 1056, (4-{6-[2-(2-Cyano-7-fluoro-4-methoxy-indol-1-yl)-ethylamino]-pyrimidin-4-yl}-phenyl)-methyl-carbamic acid methyl ester], the IC50 in assay [1] turned out to be 120 nM; in assay [2] it was 119 nM.
In the case of `CCOc1cc(-c2cc(NCCn3c(C)c(F)c4c(OC)ccc(F)c43)ncn2)sc1C(=O)O` [Example 1057, 5-{6-[2-(3,7-Difluoro-4-methoxy-2-methyl-indol-1-yl)-ethylamino]-pyrimidin-4-yl}-3-ethoxy-thiophene-2-carboxylic acid], the results for the IC50 in assay [1] and in assay [2] were 6 nM and 9 nM, respectively.
As for `COc1ccc(F)c2c1c(F)c(C)n2CCNc1cc(-c2cc(C(F)(F)F)c(C(=O)O)s2)ncn1` [Example 1058, 5-{6-[2-(3,7-Difluoro-4-methoxy-2-methyl-indol-1-yl)-ethylamino]-pyrimidin-4-yl}-3-trifluoromethyl-thiophene-2-carboxylic acid], the figures for the IC50 in assay [1] and in assay [2] were 51 nM and 19 nM, respectively.
For `COc1ccc(F)c2c1c(F)c(C#N)n2CCNc1cc(-c2cc(C(F)(F)F)c(C(=O)O)s2)ncn1` [Example 1059, 5-{6-[2-(2-Cyano-3,7-difluoro-4-methoxy-indol-1-yl)-ethylamino]-pyrimidin-4-yl}-3-trifluoromethyl-thiophene-2-carboxylic acid], in that order: 54 nM and 3 nM.
For `COc1ccc(F)c2c1cc(C)n2CCNc1cc(-c2cc(C(F)(F)F)c(-c3nn[nH]n3)s2)ncn1` [Example 1060, [2-(7-Fluoro-4-methoxy-2-methyl-indol-1-yl)-ethyl]-{6-[5-(2H-tetrazol-5-yl)-4-trifluoromethyl-thiophen-2-yl]-pyrimidin-4-yl}-amine], in that order: 17 nM and 36 nM.
As for `COc1ccc(F)c2c1cc(C)n2CCNc1cc(-c2cc(C(F)(F)F)c(C(=N)NO)s2)ncn1` [Example 1061, 5-{6-[2-(7-Fluoro-4-methoxy-2-methyl-indol-1-yl)-ethylamino]-pyrimidin-4-yl}-N-hydroxy-3-trifluoromethyl-thiophene-2-carboxamidine], the IC50 is 19 nM in assay [1] and 36 nM in assay [2].
The like results for `COc1ccc(F)c2c1cc(C)n2CCNc1cc(-c2cc(C(F)(F)F)c(-c3noc(=O)[nH]3)s2)ncn1` [Example 1062, 3-(5-{6-[2-(7-Fluoro-4-methoxy-2-methyl-indol-1-yl)-ethylamino]-pyrimidin-4-yl}-3-trifluoromethyl-thiophen-2-yl)-[1,2,4]oxadiazol-5(4H)-one] were, in that order, 33 nM and 13 nM.
Consider `COc1ccc(F)c2c1cc(C#N)n2CCNc1cc(-c2ccc3c(=O)[nH][nH]c(=O)c3c2)ncn1` [Example 1064, 1-{2-[6-(1,4-Dioxo-1,2,3,4-tetrahydro-phthalazin-6-yl)-pyrimidin-4-ylamino]-ethyl}-7-fluoro-4-methoxy-1H-indole-2-carbonitrile], for which the IC50 in assay [1] is 25 nM; in assay [2], 151 nM.
As to `COc1ccc(F)c2c1cc(C)n2CCNc1cc(-c2cc(-c3ccccn3)c(C(=O)O)s2)ncn1` [Example 1066, 5-{6-[2-(7-Fluoro-4-methoxy-2-methyl-indol-1-yl)-ethylamino]-pyrimidin-4-yl}-3-pyridin-2-yl-thiophene-2-carboxylic acid], the IC50 was 3 nM in assay [1] and 48 nM in assay [2].
For `CCNc1csc(-c2cc(NCCn3c(C)cc4c(OC)ccc(F)c43)ncn2)c1` [Example 1067, [6-(4-Ethylamino-thiophen-2-yl)-pyrimidin-4-yl]-[2-(7-fluoro-4-methoxy-2-methyl-indol-1-yl)-ethyl]-amine], in that order: 88 nM and 67 nM.
The like results for `CCNc1csc(-c2cc(NCCn3c(C)cc4c(C)ccc(F)c43)ncn2)c1` [Example 1068, [6-(4-Ethylamino-thiophen-2-yl)-pyrimidin-4-yl]-[2-(7-fluoro-2,4-dimethyl-indol-1-yl)-ethyl]-amine] were, in that order, 10 nM and 15 nM.
